Reference: article PMC5218480 (PLoS ONE, 2017)

System: MV-4-11 cells
Assay: Gene expression microarray analysis (Affymetrix PrimeView) and GSEA
Format: cell-based, human
Set-up: RFU PODN (11730768_x_at) / Fold change /veh PODN (11730768_x_at) / RFU LINC00158 (11744669_a_at) / Fold change /veh LINC00158 (11744669_a_at) / RFU DUSP10 (11751237_a_at) / Fold change /veh DUSP10 (11751237_a_at) / RFU ID3 (11757404_x_at) / Fold change /veh ID3 (11757404_x_at) / RFU PLEKHG5 (11737974_s_at) / Fold change /veh PLEKHG5 (11737974_s_at) / RFU LRRC4B (11730491_at) / Fold change /veh LRRC4B (11730491_at) / RFU GIMAP4 (11747438_a_at) / Fold change /veh GIMAP4 (11747438_a_at) / RFU KRT8 (11758183_x_at) / Fold change /veh KRT8 (11758183_x_at) / RFU CNN1 (11734310_a_at) / Fold change /veh CNN1 (11734310_a_at) / RFU VPS37D (11726825_at) / Fold change /veh VPS37D (11726825_at) / RFU C10orf10 (11716522_x_at) / Fold change /veh C10orf10 (11716522_x_at) / RFU KIR2DL2 /// KIR2DL4 /// KIR2DL5A /// KIR2DL5B /// KIR2DS1 /// KIR2DS2 /// KIR2DS3 /// KIR2DS4 /// KIR3DL3 /// KIR3DL3 /// KIR3DS1 (11738374_at) / Fold change /veh KIR2DL2 /// KIR2DL4 /// KIR2DL5A /// KIR2DL5B /// KIR2DS1 /// KIR2DS2 /// KIR2DS3 /// KIR2DS4 /// KIR3DL3 /// KIR3DL3 /// KIR3DS1 (11738374_at) / RFU C1QL1 (11718748_at) / Fold change /veh C1QL1 (11718748_at) / RFU TMPRSS4 (11747572_a_at) / Fold change /veh TMPRSS4 (11747572_a_at) / RFU HAMP (11756126_x_at) / Fold change /veh HAMP (11756126_x_at) / RFU RNFT2 (11725882_a_at) / Fold change /veh RNFT2 (11725882_a_at) / RFU NR4A2 (11747474_a_at) / Fold change /veh NR4A2 (11747474_a_at) / RFU ABCC12 (11746883_a_at) / Fold change /veh ABCC12 (11746883_a_at) / RFU TMEM136 (11760407_x_at) / Fold change /veh TMEM136 (11760407_x_at) / RFU CLDN22 /// WWC2 (11732394_at) / Fold change /veh CLDN22 /// WWC2 (11732394_at) / RFU HLA-DPB1 (11760878_x_at) / Fold change /veh HLA-DPB1 (11760878_x_at) / RFU SPINT1 (11716480_a_at) / Fold change /veh SPINT1 (11716480_a_at) / RFU GAP43 (11754022_s_at) / Fold change /veh GAP43 (11754022_s_at) / RFU A4GNT (11735810_at) / Fold change /veh A4GNT (11735810_at) / RFU PRB3 (11715151_x_at) / Fold change /veh PRB3 (11715151_x_at) / RFU TUBB4B (11761932_at) / Fold change /veh TUBB4B (11761932_at) / RFU CAPN14 (11732068_a_at) / Fold change /veh CAPN14 (11732068_a_at) / RFU TMCC2 (11721928_a_at) / Fold change /veh TMCC2 (11721928_a_at) / RFU IRGQ (11745062_a_at) / Fold change /veh IRGQ (11745062_a_at) / RFU FAM174B (11720279_a_at) / Fold change /veh FAM174B (11720279_a_at) / RFU TMPRSS4 (11748680_a_at) / Fold change /veh TMPRSS4 (11748680_a_at) / RFU FAM212B (11763350_a_at) / Fold change /veh FAM212B (11763350_a_at) / RFU PLEKHG5 (11743358_a_at) / Fold change /veh PLEKHG5 (11743358_a_at) / RFU ZSCAN30 (11745921_a_at) / Fold change /veh ZSCAN30 (11745921_a_at) / RFU CMKLR1 (11741424_a_at) / Fold change /veh CMKLR1 (11741424_a_at) / RFU LOC101060620 /// MAPK8IP1 (11723275_at) / Fold change /veh LOC101060620 /// MAPK8IP1 (11723275_at) / RFU SPTSSB (11747773_x_at) / Fold change /veh SPTSSB (11747773_x_at) / RFU PRSS12 (11739890_at) / Fold change /veh PRSS12 (11739890_at) / RFU BIN1 (11741810_x_at) / Fold change /veh BIN1 (11741810_x_at) / RFU WNT11 (11732464_a_at) / Fold change /veh WNT11 (11732464_a_at) / RFU C10orf10 (11716521_a_at) / Fold change /veh C10orf10 (11716521_a_at) / RFU C5orf56 (11738089_at) / Fold change /veh C5orf56 (11738089_at) / RFU CYB561 (11721691_x_at) / Fold change /veh CYB561 (11721691_x_at) / RFU ANKRD19P (11752326_a_at) / Fold change /veh ANKRD19P (11752326_a_at) / RFU OR2T12 /// OR2T33 /// OR2T8 (11738714_s_at) / Fold change /veh OR2T12 /// OR2T33 /// OR2T8 (11738714_s_at) / RFU VCAN (11748164_a_at) / Fold change /veh VCAN (11748164_a_at) / RFU JSRP1 (11732532_at) / Fold change /veh JSRP1 (11732532_at) / RFU KRTAP10-11 (11738290_x_at) / Fold change /veh KRTAP10-11 (11738290_x_at) / RFU MYO3A (11730013_a_at) / Fold change /veh MYO3A (11730013_a_at) / RFU EBF3 (11725865_a_at) / Fold change /veh EBF3 (11725865_a_at) / RFU CAMK2N1 (11719241_x_at) / Fold change /veh CAMK2N1 (11719241_x_at) / RFU C5orf56 (11738088_a_at) / Fold change /veh C5orf56 (11738088_a_at) / RFU OLFML3 (11715873_a_at) / Fold change /veh OLFML3 (11715873_a_at) / RFU LOC100653217 /// NTM (11731650_a_at) / Fold change /veh LOC100653217 /// NTM (11731650_a_at) / RFU MAPK11 (11762145_a_at) / Fold change /veh MAPK11 (11762145_a_at) / RFU FIZ1 (11724087_x_at) / Fold change /veh FIZ1 (11724087_x_at) / RFU OASL (11726364_x_at) / Fold change /veh OASL (11726364_x_at) / RFU SOX15 (11748057_x_at) / Fold change /veh SOX15 (11748057_x_at) / RFU CD79A (11719716_a_at) / Fold change /veh CD79A (11719716_a_at) / RFU HIST1H1D (11736915_at) / Fold change /veh HIST1H1D (11736915_at) / RFU CASKIN2 (11723855_a_at) / Fold change /veh CASKIN2 (11723855_a_at) / RFU LOC730098 (11760151_x_at) / Fold change /veh LOC730098 (11760151_x_at) / RFU OR4N2 (11742367_at) / Fold change /veh OR4N2 (11742367_at) / RFU PRRT2 (11749266_a_at) / Fold change /veh PRRT2 (11749266_a_at) / RFU SNX32 (11753110_a_at) / Fold change /veh SNX32 (11753110_a_at) / RFU CDHR5 (11726645_a_at) / Fold change /veh CDHR5 (11726645_a_at) / RFU RCAN1 (11760418_a_at) / Fold change /veh RCAN1 (11760418_a_at) / RFU FAM167A (11723789_a_at) / Fold change /veh FAM167A (11723789_a_at) / RFU FAM26E (11764081_at) / Fold change /veh FAM26E (11764081_at) / RFU ISYNA1 (11749810_s_at) / Fold change /veh ISYNA1 (11749810_s_at) / RFU ACY1 (11761880_at) / Fold change /veh ACY1 (11761880_at) / RFU 11764098_at / Fold change /veh 11764098_at / RFU SAMD14 (11745864_x_at) / Fold change /veh SAMD14 (11745864_x_at) / RFU NPB (11741838_a_at) / Fold change /veh NPB (11741838_a_at) / RFU TMPRSS6 (11731388_a_at) / Fold change /veh TMPRSS6 (11731388_a_at) / RFU KRTAP10-2 (11738614_at) / Fold change /veh KRTAP10-2 (11738614_at) / RFU ARHGAP8 /// PRR5-ARHGAP8 (11727945_x_at) / Fold change /veh ARHGAP8 /// PRR5-ARHGAP8 (11727945_x_at) / RFU KRTAP5-7 /// NADSYN1 (11734609_at) / Fold change /veh KRTAP5-7 /// NADSYN1 (11734609_at) / RFU RASL12 (11751679_a_at) / Fold change /veh RASL12 (11751679_a_at) / RFU CDKN2B (11736163_a_at) / Fold change /veh CDKN2B (11736163_a_at) / RFU PRF1 (11729649_at) / Fold change /veh PRF1 (11729649_at) / RFU, ZNF638 /// ZNF638-IT1 / Fold change vs veh, ZNF638 /// ZNF638-IT1 / RFU, PANK3 / Fold change vs veh, PANK3 / RFU, SH3YL1 / Fold change vs veh, SH3YL1 / RFU, ZEB2 / Fold change vs veh, ZEB2 / RFU, NRIP1 / Fold change vs veh, NRIP1 / RFU, PTTG1IP / Fold change vs veh, PTTG1IP / RFU, CAPN2 / Fold change vs veh, CAPN2 / RFU, MED14 / Fold change vs veh, MED14 / RFU, SNORA58 / Fold change vs veh, SNORA58 / RFU, C1orf63 / Fold change vs veh, C1orf63 / RFU, LRRFIP1 / Fold change vs veh, LRRFIP1 / RFU, NDUFAF7 / Fold change vs veh, NDUFAF7 / RFU, SLC12A2 / Fold change vs veh, SLC12A2 / RFU, IBTK / Fold change vs veh, IBTK / RFU, ESF1 / Fold change vs veh, ESF1 / Fold change vs veh, TMEM50B / RFU, TAOK1 / Fold change vs veh, TAOK1 / RFU, ACBD3 / Fold change vs veh, ACBD3 / RFU, TMA16 / Fold change vs veh, TMA16 / RFU, RWDD3 / Fold change vs veh, RWDD3 / RFU, BCAT1 / Fold change vs veh, BCAT1 / RFU, EDEM3 / Fold change vs veh, EDEM3 / RFU, TMEM33 / Fold change vs veh, TMEM33 / RFU, WDR75 / Fold change vs veh, WDR75 / RFU, AHCTF1 / Fold change vs veh, AHCTF1 / RFU, TFRC / Fold change vs veh, TFRC / RFU, ZDHHC17 / Fold change vs veh, ZDHHC17 / RFU, NOM1 / Fold change vs veh, NOM1 / RFU, ARL8B / Fold change vs veh, ARL8B / RFU, ZBTB11 / Fold change vs veh, ZBTB11 / RFU, TAMM41 / Fold change vs veh, TAMM41 / RFU, KIAA1704 /// LOC100996395 / Fold change vs veh, KIAA1704 /// LOC100996395 / RFU, ING1 / Fold change vs veh, ING1 / RFU, TRMT61B / Fold change vs veh, TRMT61B / RFU, FUBP3 / Fold change vs veh, FUBP3 / RFU, TP53 / Fold change vs veh, TP53 / RFU, TNKS2 / Fold change vs veh, TNKS2 / RFU, ZFP14 / Fold change vs veh, ZFP14 / RFU, ACTR2 / Fold change vs veh, ACTR2 / RFU, PPP3R1 / Fold change vs veh, PPP3R1 / RFU, PIK3R1 / Fold change vs veh, PIK3R1 / RFU, HNRNPA1 / Fold change vs veh, HNRNPA1 / RFU, RNF170 / Fold change vs veh, RNF170 / RFU, ZNF28 / Fold change vs veh, ZNF28 / RFU, RNGTT / Fold change vs veh, RNGTT / RFU, OGT / Fold change vs veh, OGT / RFU, BRD1 / Fold change vs veh, BRD1 / RFU, MARS / Fold change vs veh, MARS / RFU, ZNF655 / Fold change vs veh, ZNF655 / RFU, FAHD1 / Fold change vs veh, FAHD1 / RFU, BDP1 / Fold change vs veh, BDP1 / RFU, LRRCC1 / Fold change vs veh, LRRCC1 / RFU, ARID1A / Fold change vs veh, ARID1A / RFU, ZNF146 / Fold change vs veh, ZNF146 / RFU, ZNF330 / Fold change vs veh, ZNF330 / RFU, GPN3 / Fold change vs veh, GPN3 / RFU, C9orf123 / Fold change vs veh, C9orf123 / RFU, N4BP2L2 / Fold change vs veh, N4BP2L2 / RFU, ARFIP1 / Fold change vs veh, ARFIP1 / RFU, FAM179B / Fold change vs veh, FAM179B / RFU, BCL10 / Fold change vs veh, BCL10 / RFU, UHRF1BP1L / Fold change vs veh, UHRF1BP1L / RFU, BET1 / Fold change vs veh, BET1 / RFU, CNOT2 / Fold change vs veh, CNOT2 / RFU, ZNF268 / Fold change vs veh, ZNF268 / Fold change vs veh, ZNF507 / RFU, DGCR2 / Fold change vs veh, DGCR2 / RFU, WDSUB1 / Fold change vs veh, WDSUB1 / Fold change vs veh, HSP90B1 /// MIR3652 / RFU, ADSS / Fold change vs veh, ADSS / RFU, GK / Fold change vs veh, GK / RFU, ZNF148 / Fold change vs veh, ZNF148 / RFU, TAF9 / Fold change vs veh, TAF9 / RFU, SLC1A5 / Fold change vs veh, SLC1A5 / RFU, SLMO2 / Fold change vs veh, SLMO2 / RFU, ABCC4 / Fold change vs veh, ABCC4 / RFU, LOC101060439 /// RAP1B / Fold change vs veh, LOC101060439 /// RAP1B / RFU, RFX7 / Fold change vs veh, RFX7 / RFU, GTPBP10 / Fold change vs veh, GTPBP10 / RFU, CNEP1R1 / Fold change vs veh, CNEP1R1 / RFU, BIVM-ERCC5 /// ERCC5 / Fold change vs veh, BIVM-ERCC5 /// ERCC5 / RFU, ILF3 / Fold change vs veh, ILF3 / RFU 11762660_at / Fold change /veh 11762660_at / RFU VCAN (11757783_s_at) / Fold change /veh VCAN (11757783_s_at) / RFU DDX43 (11728927_at) / Fold change /veh DDX43 (11728927_at) / RFU KRT8 (11758188_x_at) / Fold change /veh KRT8 (11758188_x_at) / RFU NKD1 (11759106_at) / Fold change /veh NKD1 (11759106_at) / RFU SRD5A1 (11742802_a_at) / Fold change /veh SRD5A1 (11742802_a_at) / RFU TPSAB1 /// TPSB2 (11721975_s_at) / Fold change /veh TPSAB1 /// TPSB2 (11721975_s_at) / RFU GSTM3 (11746129_a_at) / Fold change /veh GSTM3 (11746129_a_at) / RFU IL23R (11737362_x_at) / Fold change /veh IL23R (11737362_x_at) / RFU TMEM51 (11727254_a_at) / Fold change /veh TMEM51 (11727254_a_at) / RFU PIWIL2 (11732686_x_at) / Fold change /veh PIWIL2 (11732686_x_at) / RFU ORM1 (11744905_x_at) / Fold change /veh ORM1 (11744905_x_at) / RFU CCDC152 (11743942_at) / Fold change /veh CCDC152 (11743942_at) / RFU ECM1 (11717891_a_at) / Fold change /veh ECM1 (11717891_a_at) / RFU IL23R (11748794_a_at) / Fold change /veh IL23R (11748794_a_at) / RFU TNFAIP8L3 (11732012_x_at) / Fold change /veh TNFAIP8L3 (11732012_x_at) / RFU MBOAT4 (11741988_at) / Fold change /veh MBOAT4 (11741988_at) / RFU 11764193_at / Fold change /veh 11764193_at / RFU TMEM53 (11763286_at) / Fold change /veh TMEM53 (11763286_at) / RFU MAGEB2 (11727129_at) / Fold change /veh MAGEB2 (11727129_at) / RFU TMEM200A (11744735_a_at) / Fold change /veh TMEM200A (11744735_a_at) / RFU CCDC152 (11751479_a_at) / Fold change /veh CCDC152 (11751479_a_at) / RFU FAM211A (11726209_a_at) / Fold change /veh FAM211A (11726209_a_at) / RFU RGS16 (11746705_a_at) / Fold change /veh RGS16 (11746705_a_at) / RFU VCAN (11755009_s_at) / Fold change /veh VCAN (11755009_s_at) / RFU RHOB (11743442_s_at) / Fold change /veh RHOB (11743442_s_at) / RFU RGS16 (11720943_a_at) / Fold change /veh RGS16 (11720943_a_at) / RFU RGS16 (11720944_at) / Fold change /veh RGS16 (11720944_at) / RFU, VPS4B / Fold change vs veh, VPS4B / RFU, CREB1 / Fold change vs veh, CREB1 / RFU, DNAJC13 / Fold change vs veh, DNAJC13 / RFU, GNAQ / Fold change vs veh, GNAQ / RFU, CDK5R1 / Fold change vs veh, CDK5R1 / RFU, ZRANB3 / Fold change vs veh, ZRANB3 / RFU, CUL4A / Fold change vs veh, CUL4A / RFU, CCNY / Fold change vs veh, CCNY / RFU, UFL1 / Fold change vs veh, UFL1 / RFU, COG3 / Fold change vs veh, COG3 / RFU, DIAPH2 / Fold change vs veh, DIAPH2 / RFU, SKA2 / Fold change vs veh, SKA2 / RFU, AFF3 / Fold change vs veh, AFF3 / RFU, LMF1 / Fold change vs veh, LMF1 / RFU, IPO11 / Fold change vs veh, IPO11 / RFU, DFFB / Fold change vs veh, DFFB / RFU, FOXP1 / Fold change vs veh, FOXP1 / RFU, CARD8 / Fold change vs veh, CARD8 / RFU, STRN3 / Fold change vs veh, STRN3 / RFU, ADK / Fold change vs veh, ADK / RFU, RASSF2 / Fold change vs veh, RASSF2 / RFU, WIPF1 / Fold change vs veh, WIPF1 / RFU, LARP1B / Fold change vs veh, LARP1B / RFU, RASA1 / Fold change vs veh, RASA1 / RFU, RB1 / Fold change vs veh, RB1 / RFU, PPFIA1 / Fold change vs veh, PPFIA1 / RFU, MAT2A / Fold change vs veh, MAT2A / RFU, CCT5 / Fold change vs veh, CCT5 / RFU, WDR92 / Fold change vs veh, WDR92 / RFU, CUX1 / Fold change vs veh, CUX1 / RFU, TTC7A / Fold change vs veh, TTC7A / RFU, TMEM135 / Fold change vs veh, TMEM135 / RFU, DEPTOR / Fold change vs veh, DEPTOR / RFU, CPM / Fold change vs veh, CPM / RFU, DNAJB6 / Fold change vs veh, DNAJB6 / RFU, CACNA2D3 / Fold change vs veh, CACNA2D3 / RFU, DTX4 / Fold change vs veh, DTX4 / RFU, TFCP2 / Fold change vs veh, TFCP2 / RFU, GMCL1 /// GMCL1P1 / Fold change vs veh, GMCL1 /// GMCL1P1 / RFU, AEBP2 / Fold change vs veh, AEBP2 / RFU, SNHG1 /// SNORD22 /// SNORD25 /// SNORD26 /// SNORD27 /// SNORD28 /// SNORD29 /// SNORD31 / Fold change vs veh, SNHG1 /// SNORD22 /// SNORD25 /// SNORD26 /// SNORD27 /// SNORD28 /// SNORD29 /// SNORD31 / Fold change (Aza/veh), C12orf56 (ProbeSet 11735607_a_at) / Fold change (ACY-1035/veh), C12orf56 (ProbeSet 11735607_a_at) / Fold change (Aza/veh), FGFR1OP (ProbeSet 11751329_s_at) / Fold change (ACY-1035/veh), FGFR1OP (ProbeSet 11751329_s_at) / Fold change (Aza/veh), VPS36 (ProbeSet 11739960_a_at) / Fold change (ACY-1035/veh), VPS36 (ProbeSet 11739960_a_at) / RFU SYPL1 (11715823_x_at) / Fold change /veh SYPL1 (11715823_x_at) / RFU IGFBP7 (11715501_s_at) / Fold change /veh IGFBP7 (11715501_s_at) / RFU REEP3 (11722064_at) / Fold change /veh REEP3 (11722064_at) / RFU IGLL1 (11728026_x_at) / Fold change /veh IGLL1 (11728026_x_at): dose or concentration left out as unconfirmed
Conditions: ProbeSet 11721611_a_at; LIST D

**Q.** How did the “Fold change vs veh, IPO11” value turn out when `Nc1ccc(-c2cccs2)cc1NC(=O)c1ccc2c(c1)cc(C1CC1)n2CCN1CCOCC1` [ACY-1035] was run?
**A.** Its value is 0.84.
